CNC(=O)c1cc(Oc2ccc(NC(=O)Nc3ccc(Cl)c(C(F)(F)F)c3)cc2)ccn1
solubility (mole fraction)
Conditions | 273.15 K | 278.15 K | 283.15 K | 288.15 K | 293.15 K | 298.15 K | 303.15 K | 308.15 K | 313.15 K
in 2-butanone | 0.00666 | 0.00725 | 0.0079 | 0.00856 | 0.00929 | 0.0101 | 0.0111 | 0.0122 | 0.0133
in acetone | 0.00227 | 0.00259 | 0.00293 | 0.00329 | 0.00369 | 0.00405 | 0.00448 | 0.00488 | 0.00558
in acetonitrile | 0.000162 | 0.000194 | 0.000239 | 0.000282 | 0.000334 | 0.000396 | 0.000476 | 0.000571 | 0.000678
in cyclohexanone | 0.0114 | 0.0124 | 0.0138 | 0.0153 | 0.0169 | 0.0189 | 0.0209 | 0.0229 | 0.0251
in ethanol | 0.000645 | 0.000727 | 0.000817 | 0.000922 | 0.00103 | 0.00114 | 0.00127 | 0.0014 | 0.00155
in ethyl acetate | 0.000835 | 0.001 | 0.00119 | 0.00142 | 0.00165 | 0.00192 | 0.00222 | 0.00255 | 0.00293
in isobutanol | 0.000433 | 0.000498 | 0.00058 | 0.000661 | 0.000755 | 0.000854 | 0.000972 | 0.0011 | 0.00126
in isopropanol | 0.000498 | 0.000573 | 0.000665 | 0.000761 | 0.000866 | 0.000975 | 0.0011 | 0.00123 | 0.00138
in methanol | 0.000385 | 0.000422 | 0.000459 | 0.000509 | 0.000564 | 0.000628 | 0.000701 | 0.000769 | 0.000848
in n-butanol | 0.000726 | 0.000817 | 0.000919 | 0.00103 | 0.00116 | 0.0013 | 0.00145 | 0.00162 | 0.00182
in n-propanol | 0.000756 | 0.00086 | 0.000978 | 0.00111 | 0.00126 | 0.00143 | 0.00162 | 0.00183 | 0.00207
in toluene | 0.00197 | 0.00218 | 0.00234 | 0.00255 | 0.00282 | 0.00313 | 0.00352 | 0.00382 | 0.00428
